Data published in patent publication US20260109690A1, “HDAC6 INHIBITORS AND METHOD OF THEIR USE” (Baerenkraft Therapeutics, LLC., priority 2024, published 2026).
Read-outs that look alike come from different tables or passages of the source.

Assays:
[1] = ALS mouse model: body weight; format: in vivo; conditions: SOD1-G93A mice, in g (unit assumed)
Procedure: Mice were weighed and randomized into different groups and age matched control groups were kept as such. Test compound I-8 was freshly formulated and administered to the respective animals of each group as per body weight. Animals in G1 and G2 were administered with vehicle. G3 and G4 group animals were dosed with compound I-8 at the dose of 15 mg/kg and 30 mg/kg respectively, per orally; Q.D. G4 animals were administered 30 mg/kg dose until day 34 and 50 mg/kg from day 35 onwards.
The body weight of each animal was recorded at the time of randomization and once in 2 days during the study period.

[2] = target: HDAC2 (Homo sapiens, UniProt Q92769); assay: HDAC selectivity panel: HDAC2; format: biochemical
HDAC2, sequence (Q92769 whole entry, species assumed): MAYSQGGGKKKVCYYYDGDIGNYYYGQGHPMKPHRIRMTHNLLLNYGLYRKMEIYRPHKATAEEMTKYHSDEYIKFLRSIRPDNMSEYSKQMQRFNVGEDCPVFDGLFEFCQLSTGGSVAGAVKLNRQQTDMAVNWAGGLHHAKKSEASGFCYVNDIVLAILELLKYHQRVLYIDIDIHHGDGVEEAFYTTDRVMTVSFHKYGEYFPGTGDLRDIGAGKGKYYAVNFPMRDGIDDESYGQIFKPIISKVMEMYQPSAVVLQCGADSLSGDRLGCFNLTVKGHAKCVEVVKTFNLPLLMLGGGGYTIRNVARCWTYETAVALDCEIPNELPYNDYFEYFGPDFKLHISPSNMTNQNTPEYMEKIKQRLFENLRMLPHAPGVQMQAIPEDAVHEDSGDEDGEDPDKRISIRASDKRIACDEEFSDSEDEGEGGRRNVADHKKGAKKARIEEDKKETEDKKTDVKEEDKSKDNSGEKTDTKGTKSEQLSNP

[3] = system: B6SJL.SOD1-G93A transgenic mouse model of amyotrophic lateral sclerosis; assay: ALS mouse model: beam walk test; format: in vivo, mice
Text: Beam walk test was used for the assessment of motor coordination or balance of animals. The beam apparatus consisted of 1-meter beams with a flat surface of 6 mm width resting 50 cm above the tabletop on two poles. Animals were placed at one end of the beam, allowed to traverse the beam and reach another end with a cage filled with the home cage bedding. Animals were trained on beams for 2 consecutive days, 3 trials per day with 30 s inter-trial interval. On day 3 (day of test), animals were tested on the beam. A total 3 trials were performed, and time taken to traverse the beam & number of slips were recorded, average data was analyzed. For animals unable to traverse the beam, a cutoff time of 60 s was assigned.
Note: Number of slips were recorded until week 12 due to disease progression after that.
Note: Behavioral tests were performed once in two weeks, i.e. at week 10, 12, 14 and 16.

[4] = target: T1, HDAC6 (Homo sapiens, UniProt Q9UBN7); assay: Biochemical HDAC6 inhibitory activity assay
T1 sequence (Q9UBN7 1-1215): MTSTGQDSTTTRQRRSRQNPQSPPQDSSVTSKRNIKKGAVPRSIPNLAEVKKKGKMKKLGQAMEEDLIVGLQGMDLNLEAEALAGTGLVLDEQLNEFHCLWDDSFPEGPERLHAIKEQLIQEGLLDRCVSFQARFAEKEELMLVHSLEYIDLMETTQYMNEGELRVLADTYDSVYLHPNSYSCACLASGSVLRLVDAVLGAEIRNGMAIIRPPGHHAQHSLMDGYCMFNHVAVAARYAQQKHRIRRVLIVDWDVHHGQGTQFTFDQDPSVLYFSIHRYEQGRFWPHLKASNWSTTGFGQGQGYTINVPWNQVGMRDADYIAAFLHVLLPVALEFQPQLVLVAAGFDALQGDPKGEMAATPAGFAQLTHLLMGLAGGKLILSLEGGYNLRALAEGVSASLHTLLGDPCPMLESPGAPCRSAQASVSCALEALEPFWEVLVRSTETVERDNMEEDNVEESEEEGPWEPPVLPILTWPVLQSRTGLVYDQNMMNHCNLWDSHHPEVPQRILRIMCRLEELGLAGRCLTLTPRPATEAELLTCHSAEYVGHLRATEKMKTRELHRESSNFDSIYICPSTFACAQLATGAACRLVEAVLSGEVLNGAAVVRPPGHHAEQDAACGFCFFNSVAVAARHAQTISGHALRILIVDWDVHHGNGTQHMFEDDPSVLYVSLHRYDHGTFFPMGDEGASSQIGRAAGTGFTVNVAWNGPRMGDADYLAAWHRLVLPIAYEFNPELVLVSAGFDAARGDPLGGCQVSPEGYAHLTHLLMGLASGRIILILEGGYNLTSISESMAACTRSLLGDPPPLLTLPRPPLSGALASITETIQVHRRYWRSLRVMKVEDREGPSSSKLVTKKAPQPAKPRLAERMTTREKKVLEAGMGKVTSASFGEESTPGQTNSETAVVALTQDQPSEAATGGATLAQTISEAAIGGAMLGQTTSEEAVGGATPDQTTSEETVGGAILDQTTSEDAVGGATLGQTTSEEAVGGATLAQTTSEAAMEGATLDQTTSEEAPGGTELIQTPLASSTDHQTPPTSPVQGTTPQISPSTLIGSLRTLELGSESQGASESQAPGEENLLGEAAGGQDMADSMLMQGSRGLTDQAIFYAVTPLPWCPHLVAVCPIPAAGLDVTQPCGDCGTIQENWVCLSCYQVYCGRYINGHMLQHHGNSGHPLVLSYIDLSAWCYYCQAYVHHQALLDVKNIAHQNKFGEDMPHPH

SMILES: CC1CN(Cc2ccc(Nc3nccc(-c4ccc(C(=O)NO)cc4)n3)cc2F)CCO1 (racemic) [Compound I-8, 4-(2-((3-fluoro-4-((2-methylmorpholino)methyl)phenyl)amino)pyrimidin-4-yl)-N-hydroxybenzamide]
- Body weight ([1]; G3 15 mg/kg p.o. QD, Day 1): 25.99 ± 0.73
- Body weight ([1]; G3 15 mg/kg p.o. QD, Day 7): 25.97 ± 0.70
- Body weight ([1]; G3 15 mg/kg p.o. QD, Day 13): 26.54 ± 0.52
- Body weight ([1]; G3 15 mg/kg p.o. QD, Day 21): 26.81 ± 0.45
- Body weight ([1]; G3 15 mg/kg p.o. QD, Day 27): 26.51 ± 0.46
- Body weight ([1]; G3 15 mg/kg p.o. QD, Day 35): 26.76 ± 0.43
- Body weight ([1]; G3 15 mg/kg p.o. QD, Day 43): 26.60 ± 0.50
- Body weight ([1]; G3 15 mg/kg p.o. QD, Day 49): 25.47 ± 0.62
- Body weight ([1]; G3 15 mg/kg p.o. QD, Day 52): 24.52 ± 0.68
- Body weight ([1]; G4 30 mg/kg (50 mg/kg from day 34) p.o. QD, Day 1): 25.66 ± 0.48
- Body weight ([1]; G4 30 mg/kg (50 mg/kg from day 34) p.o. QD, Day 7): 25.64 ± 0.40
- Body weight ([1]; G4 30 mg/kg (50 mg/kg from day 34) p.o. QD, Day 13): 26.14 ± 0.52
- Body weight ([1]; G4 30 mg/kg (50 mg/kg from day 34) p.o. QD, Day 21): 27.53 ± 0.60
- Body weight ([1]; G4 30 mg/kg (50 mg/kg from day 34) p.o. QD, Day 27): 27.29 ± 0.52
- Body weight ([1]; G4 30 mg/kg (50 mg/kg from day 34) p.o. QD, Day 35): 26.55 ± 0.57
- Body weight ([1]; G4 30 mg/kg (50 mg/kg from day 34) p.o. QD, Day 43): 26.04 ± 0.60
- Body weight ([1]; G4 30 mg/kg (50 mg/kg from day 34) p.o. QD, Day 49): 24.30 ± 0.96
- Body weight ([1]; G4 30 mg/kg (50 mg/kg from day 34) p.o. QD, Day 52 (n = 6-8)): 24.75 ± 0.45
- IC50 [2]: 2800 nM
- Beam Walk Test- Latency to traverse the beam ([3]; G3 15 mg/kg p.o. QD, Week 10): 21.37 ± 5.99 s
- Beam Walk Test: Number of Slips ([3]; G3 15 mg/kg p.o. QD, Week 10): 1.42 ± 0.14
- Beam Walk Test- Latency to traverse the beam ([3]; G3 15 mg/kg p.o. QD, Week 12): 25.96 ± 5.59 s
- Beam Walk Test: Number of Slips ([3]; G3 15 mg/kg p.o. QD, Week 12): 0.93 ± 0.19
- Beam Walk Test- Latency to traverse the beam ([3]; G3 15 mg/kg p.o. QD, Week 14): 20.52 ± 6.85 s
- Beam Walk Test- Latency to traverse the beam ([3]; G3 15 mg/kg p.o. QD, Week 16): 58.21 ± 1.79 s
- Beam Walk Test- Latency to traverse the beam ([3]; G4 30 mg/kg (50 mg/kg from day 34) p.o. QD, Week 10): 17.04 ± 5.71 s
- Beam Walk Test- Latency to traverse the beam ([3]; G4 30 mg/kg (50 mg/kg from day 34) p.o. QD, Week 12): 29.83 ± 6.82 s
- Beam Walk Test- Latency to traverse the beam ([3]; G4 30 mg/kg (50 mg/kg from day 34) p.o. QD, Week 14): 25.29 ± 7.64 s
- Beam Walk Test- Latency to traverse the beam ([3]; G4 30 mg/kg (50 mg/kg from day 34) p.o. QD, Week 16, cutoff time 60 s): 60 ± 0 s
- Beam Walk Test: Number of Slips ([3]; G4 30 mg/kg p.o. QD, Week 10): 1.33 ± 0.40
- Beam Walk Test: Number of Slips ([3]; G4 30 mg/kg p.o. QD, Week 12): 1.38 ± 0.34
- latency to traverse the beam vs. G2 ([3]; G4, week 10): significant reduction in latency to traverse the beam
- motor balance compared to G2, disease control group ([3]; G4, week 10): significant improvement was observed in motor balance
- IC50 ([4]; 10-dose IC50 mode, in singlet, 3-fold serial dilution, test compound starting at 100 millimolar, read-out: HDAC6 IC50): 7.32 nM
- EC50 ([4]; 10-dose in vitro test (FIG. 1)): 7.32 nM
- selectivity for HDAC6 compared to other HDACs ([4]; against 11 HDACs): marked selectivity for HDAC6
- IC50 ([4]; read-out: HDAC6 IC50): < 1000 nM

SMILES: C[C@@H]1CN(Cc2ccc(Nc3nccc(-c4ccc(C(=O)NO)cc4)n3)cc2F)CCO1 [Compound I-16, (R)-4-(2-((3-fluoro-4-((2-methylmorpholino)methyl)phenyl)amino)pyrimidin-4-yl)-N-hydroxybenzamide]
- IC50 ([4]; read-out: HDAC6 IC50): < 1000 nM
- IC50 ([4]; unit inferred, read-out: IC50 against HDAC6 (FIG. 3)): 12.4 nM
